Test results as given in ChEMBL document CHEMBL1132123, “The synthesis and biological activity of a series of 2,4-diaminopyrido[2,3-d]pyrimidine based antifolates as antineoplastic and antiarthritic agents” (Bioorg Med Chem Lett, 1999).

Experiments:
[1] = Vmax/Km value was determined
[2] = test system: Rattus norvegicus; assay: Compound evaluated for inhibition of rat paw swelling after ip administration at 0.125 mg/kg and expressed as net swelling in mL of displaced water in delayed phase; assay type: functional; settings: route intraperitoneal
[3] = test system: Rattus norvegicus; assay: Compound evaluated for inhibition of rat paw swelling after ip administration at 0.06 mg/kg and expressed as net swelling in mL of displaced water in delayed phase; assay type: functional; settings: route intraperitoneal
[4] = test system: Rattus norvegicus; assay: Compound evaluated for inhibition of rat paw swelling after ip administration at 0.125 mg/kg in acute phase; assay type: functional; settings: route intraperitoneal
[5] = test system: Rattus norvegicus; assay: Compound evaluated for inhibition of rat paw swelling after ip administration at 0.06 mg/kg in acute phase; assay type: functional; settings: route intraperitoneal
[6] = test system: Rattus norvegicus; assay: Compound evaluated for inhibition of rat paw swelling after ip administration at 0.125 mg/kg and expressed as net swelling in mL of displaced water in acute phase; assay type: functional; settings: route intraperitoneal
[7] = molecular target: T1, Trifunctional purine biosynthetic protein adenosine-3 (Mus musculus, UniProt Q64737); assay: Inhibitory activity against murine glycinamide ribonucleotide formyltransferase (GARFT) enzyme
T1 sequence (Q64737 whole entry): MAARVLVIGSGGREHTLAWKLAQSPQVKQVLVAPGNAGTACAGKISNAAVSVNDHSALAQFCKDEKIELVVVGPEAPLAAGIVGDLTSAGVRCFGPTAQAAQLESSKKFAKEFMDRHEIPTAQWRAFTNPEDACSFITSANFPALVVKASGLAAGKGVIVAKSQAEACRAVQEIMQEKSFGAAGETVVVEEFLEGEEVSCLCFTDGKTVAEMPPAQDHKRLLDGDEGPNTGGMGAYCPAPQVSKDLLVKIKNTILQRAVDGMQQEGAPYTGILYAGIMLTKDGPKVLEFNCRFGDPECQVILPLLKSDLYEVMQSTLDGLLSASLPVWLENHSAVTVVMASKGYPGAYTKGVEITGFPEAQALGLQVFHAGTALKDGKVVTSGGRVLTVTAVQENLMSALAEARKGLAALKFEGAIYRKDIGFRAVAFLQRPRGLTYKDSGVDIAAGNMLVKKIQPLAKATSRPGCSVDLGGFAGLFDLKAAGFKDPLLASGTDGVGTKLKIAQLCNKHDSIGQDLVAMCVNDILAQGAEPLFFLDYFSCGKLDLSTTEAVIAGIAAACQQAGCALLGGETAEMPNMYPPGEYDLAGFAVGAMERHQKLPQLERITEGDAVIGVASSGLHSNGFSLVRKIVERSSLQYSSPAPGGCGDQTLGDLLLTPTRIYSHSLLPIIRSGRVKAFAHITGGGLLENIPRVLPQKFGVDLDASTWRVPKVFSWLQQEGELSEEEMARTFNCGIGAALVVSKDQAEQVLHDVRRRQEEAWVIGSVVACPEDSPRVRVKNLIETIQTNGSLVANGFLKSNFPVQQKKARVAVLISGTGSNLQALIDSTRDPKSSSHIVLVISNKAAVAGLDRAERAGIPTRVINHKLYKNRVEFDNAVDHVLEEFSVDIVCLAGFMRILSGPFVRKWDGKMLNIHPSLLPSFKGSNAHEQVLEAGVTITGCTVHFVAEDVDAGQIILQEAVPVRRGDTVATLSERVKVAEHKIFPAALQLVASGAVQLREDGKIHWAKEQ

[8] = test system: Rattus norvegicus; assay: Compound evaluated for inhibition of rat paw swelling after ip administration at 0.06 mg/kg and expressed as net swelling in mL of displaced water in acute phase; assay type: functional; settings: route intraperitoneal
[9] = test system: Rattus norvegicus; assay: Compound evaluated for inhibition of rat paw swelling after ip administration at 0.125 mg/kg in delayed phase; assay type: functional; settings: route intraperitoneal
[10] = molecular target: T2, Dihydrofolate reductase (Homo sapiens, UniProt P00374); assay: Inhibitory activity against recombinant human dihydrofolate reductase (DHFR)
T2 sequence (P00374 whole entry): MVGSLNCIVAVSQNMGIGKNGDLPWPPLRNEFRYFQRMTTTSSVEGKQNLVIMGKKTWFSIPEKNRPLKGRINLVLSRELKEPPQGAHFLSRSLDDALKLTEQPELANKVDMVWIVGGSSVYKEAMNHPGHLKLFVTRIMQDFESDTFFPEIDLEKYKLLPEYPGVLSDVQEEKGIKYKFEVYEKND

[11] = test system: Rattus norvegicus; assay: Compound evaluated for inhibition of rat paw swelling after ip administration at 0.06 mg/kg in delayed phase; assay type: functional; settings: route intraperitoneal
[12] = molecular target: T3, Thymidylate synthase (Homo sapiens, UniProt P04818); assay: Inhibitory activity against recombinant human Thymidylate synthase
T3 sequence (P04818 whole entry): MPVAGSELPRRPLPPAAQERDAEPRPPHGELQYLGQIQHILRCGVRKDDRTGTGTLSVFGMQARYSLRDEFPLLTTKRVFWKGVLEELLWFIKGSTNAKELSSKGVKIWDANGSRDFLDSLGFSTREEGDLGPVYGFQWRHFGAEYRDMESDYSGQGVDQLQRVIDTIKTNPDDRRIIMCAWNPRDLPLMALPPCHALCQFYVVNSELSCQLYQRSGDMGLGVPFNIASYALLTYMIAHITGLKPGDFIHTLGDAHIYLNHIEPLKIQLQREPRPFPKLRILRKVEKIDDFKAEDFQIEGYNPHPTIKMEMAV

[13] = molecular target: T3, Thymidylate synthase; assay: Inhibitory activity against recombinant human Thymidylate synthase enzyme
[14] = test system: Rattus norvegicus; assay: Compound evaluated for inhibition of rat paw swelling after ip administration at 0.30 mg/kg in delayed phase; assay type: functional; settings: route intraperitoneal
[15] = test system: Rattus norvegicus; assay: Compound evaluated for inhibition of rat paw swelling after ip administration at 0.30 mg/kg and expressed as net swelling in mL of displaced water in delayed phase; assay type: functional; settings: dose 0.3 mg/kg; route intraperitoneal
[16] = substrate: C[C@](CCC(=O)O)(NC(=O)c1ccc(CCC2CNc3nc(N)nc(N)c3C2)cc1)C(=O)O; assay: (§1) Maximum rate of metabolism by hog liver folyl-poly-glutamate synthetase (FPGS) was determined; settings: Sus scrofa
[17] = substrate: C[C@](CCC(=O)O)(NC(=O)c1ccc(CCC2CNc3nc(N)nc(N)c3C2)s1)C(=O)O; assay: as §1; settings: Sus scrofa
[18] = substrate: C[C@](CCC(=O)O)(NC(=O)c1ccc(CCC2CNc3nc(N)nc(N)c3C2)o1)C(=O)O; assay: as §1; settings: Sus scrofa
[19] = substrate: Nc1nc(O)c2c(n1)NCC(CCc1ccc(C(=O)NC(CCC(=O)O)C(=O)O)cc1)C2; assay: as §1; settings: Sus scrofa
[20] = substrate: C[C@](CCC(=O)O)(NC(=O)c1ccc(CCC2CNc3nc(N)nc(N)c3C2)cc1)C(=O)O; assay: (§2) Michaelis-Menten constant for hog liver folyl-poly-glutamate synthetase (FPGS); settings: Sus scrofa
[21] = substrate: C[C@](CCC(=O)O)(NC(=O)c1ccc(CCC2CNc3nc(N)nc(N)c3C2)s1)C(=O)O; assay: as §2; settings: Sus scrofa
[22] = substrate: C[C@](CCC(=O)O)(NC(=O)c1ccc(CCC2CNc3nc(N)nc(N)c3C2)o1)C(=O)O; assay: as §2; settings: Sus scrofa
[23] = substrate: Nc1nc(O)c2c(n1)NCC(CCc1ccc(C(=O)NC(CCC(=O)O)C(=O)O)cc1)C2; assay: as §2; settings: Sus scrofa

Molecule: Nc1nc(O)c2c(n1)NCC(CCc1ccc(C(=O)NC(CCC(=O)O)C(=O)O)cc1)C2 (configuration not stated)
- Vmax / Km [1]: 60

Molecule: C[C@](CCC(=O)O)(NC(=O)c1ccc(CCC2CNc3nc(N)nc(N)c3C2)cc1)C(=O)O (some centres not stated)
- Net Swelling [2]: 0.12
- Net Swelling [3]: 0.15
- inhibition in vivo at 0.125 mg/kg [4]: 35%
- Vmax / Km [1]: 40
- inhibition in vivo at 0.06 mg/kg [5]: 0%
- Net Swelling [6]: 0.55
- Ki [7]: 56 µM
- Net Swelling [8]: 0.82
- inhibition in vivo at 0.125 mg/kg [9]: 14%
- Ki [10]: 0.29 nM
- inhibition in vivo at 0.06 mg/kg [11]: 0%
- Ki [12]: > 5 µM

Molecule: C[C@](CCC(=O)O)(NC(=O)c1ccc(CCC2CNc3nc(N)nc(N)c3C2)o1)C(=O)O (some centres not stated)
- Ki [13]: > 5 µM
- Vmax / Km [1]: 9.2
- Ki [7]: 0.71 µM
- Ki [10]: 9.87 nM

Molecule: CN(Cc1cnc2nc(N)nc(N)c2n1)c1ccc(C(=O)N[C@@H](CCC(=O)O)C(=O)O)cc1
- Vmax / Km [1]: 4.3

Molecule: C[C@]12CCC(=O)C=C1CCC1[C@@H]2[C@@H](O)C[C@@]2(C)[C@H]1CC[C@]2(O)C(=O)CO (single isomer, unassigned) [HYDROCORTISONE]
- inhibition in vivo at 0.3 mg/kg [14]: 36%
- Net Swelling [15]: 0.09

Molecule: C[C@](CCC(=O)O)(NC(=O)c1ccc(CCC2CNc3nc(N)nc(N)c3C2)s1)C(=O)O (some centres not stated)
- Ki [13]: > 5 µM
- Vmax / Km [1]: 98
- Ki [7]: 9.2 µM
- Ki [10]: 0.69 nM

B1: Folylpolyglutamate synthase, mitochondrial (Homo sapiens), Q05932 (protein)
chain: MSRARSHLRAALFLAAASARGITTQVAARRGLSAWPVPQEPSMEYQDAVRMLNTLQTNAGYLEQVKRQRGDPQTQLEAMELYLARSGLQVEDLDRLNIIHVTGTKGKGSTCAFTECILRSYGLKTGFFSSPHLVQVRERIRINGQPISPELFTKYFWRLYHRLEETKDGSCVSMPPYFRFLTLMAFHVFLQEKVDLAVVEVGIGGAYDCTNIIRKPVVCGVSSLGIDHTSLLGDTVEKIAWQKGGIFKQGVPAFTVLQPEGPLAVLRDRAQQISCPLYLCPMLEALEEGGPPLTLGLEGEHQRSNAALALQLAHCWLQRQDRHGAGEPKASRPGLLWQLPLAPVFQPTSHMRLGLRNTEWPGRTQVLRRGPLTWYLDGAHTASSAQACVRWFRQALQGRERPSGGPEVRVLLFNATGDRDPAALLKLLQPCQFDYAVFCPNLTEVSSTGNADQQNFTVTLDQVLLRCLEHQQHWNHLDEEQASPDLWSAPSPEPGGSASLLLAPHPPHTCSASSLVFSCISHALQWISQGRDPIFQPPSPPKGLLTHPVAHSGASILREAAAIHVLVTGSLHLVGGVLKLLEPALSQ
- Vmax [16]: 1190 nM/h/mg
- Vmax [17]: 1140 nM/h/mg
- Vmax [18]: 696 nM/h/mg
- Vmax [19]: 977 nM/h/mg
- Km [20]: 28.2 µM
- Km [21]: 11.6 µM
- Km [22]: 75.3 µM
- Km [23]: 16.4 µM
